Measured values from patent US20210198277A1, “AMINE-SUBSTITUTED ARYL OR HETEROARYL COMPOUNDS” (Epizyme, Inc., priority 2016, published 2021).

Target: T1, EHMT2 (Homo sapiens, UniProt Q96KQ7)
T1 construct: host or cells: MDA-MB-231
T1 sequence (Q96KQ7 1-1210): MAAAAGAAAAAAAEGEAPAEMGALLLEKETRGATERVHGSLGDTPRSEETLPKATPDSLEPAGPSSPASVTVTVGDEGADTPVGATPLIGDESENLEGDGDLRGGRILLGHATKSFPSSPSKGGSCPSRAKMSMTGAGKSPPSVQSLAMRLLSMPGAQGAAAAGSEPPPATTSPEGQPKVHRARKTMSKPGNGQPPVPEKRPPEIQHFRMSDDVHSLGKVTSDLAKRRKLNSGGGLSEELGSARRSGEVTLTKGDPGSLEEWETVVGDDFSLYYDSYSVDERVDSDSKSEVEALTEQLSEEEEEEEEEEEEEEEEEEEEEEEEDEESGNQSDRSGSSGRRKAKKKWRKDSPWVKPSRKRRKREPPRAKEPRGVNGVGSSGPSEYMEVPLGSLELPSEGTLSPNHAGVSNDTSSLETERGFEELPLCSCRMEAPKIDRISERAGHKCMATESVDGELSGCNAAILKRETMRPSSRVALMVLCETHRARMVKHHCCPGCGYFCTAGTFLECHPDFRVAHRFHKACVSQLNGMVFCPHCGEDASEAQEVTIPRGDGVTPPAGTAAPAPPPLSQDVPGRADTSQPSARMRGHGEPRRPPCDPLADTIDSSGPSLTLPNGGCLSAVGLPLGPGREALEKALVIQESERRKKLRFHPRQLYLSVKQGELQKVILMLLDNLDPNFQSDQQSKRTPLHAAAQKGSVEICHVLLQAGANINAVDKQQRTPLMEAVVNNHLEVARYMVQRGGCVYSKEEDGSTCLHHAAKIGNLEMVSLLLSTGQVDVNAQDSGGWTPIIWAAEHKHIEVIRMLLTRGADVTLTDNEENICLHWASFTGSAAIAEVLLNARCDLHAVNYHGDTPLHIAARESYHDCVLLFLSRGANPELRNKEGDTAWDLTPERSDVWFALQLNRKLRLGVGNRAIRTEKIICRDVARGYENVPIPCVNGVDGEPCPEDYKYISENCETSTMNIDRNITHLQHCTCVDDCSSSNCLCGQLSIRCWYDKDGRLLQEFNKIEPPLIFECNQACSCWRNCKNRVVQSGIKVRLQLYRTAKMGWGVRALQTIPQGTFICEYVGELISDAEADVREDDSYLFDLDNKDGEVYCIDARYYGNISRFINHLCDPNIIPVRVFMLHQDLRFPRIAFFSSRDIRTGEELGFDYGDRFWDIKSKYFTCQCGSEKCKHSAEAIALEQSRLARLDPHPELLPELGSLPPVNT
Experiment: MDA-MB-231 H3K9me2 in-cell Western assay (EHMT2 ICW)
Format: cell-based
Conditions: H3K9me2 in-cell Western, MDA-MB-231 cells; read-out: EHMT2 ICW (IC50 μM)
Outline: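 Cellular dimethyl-H3K9 is quantified by in-cell Western in MDA-MB-231 cells treated with compound for 48 h. The H3K9me2 signal at 800 nm is normalised to DRAQ5 nuclear stain at 700 nm. IC50 is calculated from triplicate concentration points by nonlinear regression.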

`CNc1nc(C2CCCC2)c2cc(OC)c(OCCCN3CCCC3)cc2n1` [Compound 518, 4-cyclopentyl-6-methoxy-N-methyl-7-(3-(pyrrolidin-1-yl)propoxy)quinazolin-2-amine] and `CNc1nc(C2CCCCC2)c2cc(OC)c(OCCCN3CCCC3)cc2n1` [Compound 523, 4-cyclohexyl-6-methoxy-N-methyl-7-(3-(pyrrolidin-1-yl)propoxy)quinazolin-2-amine] fall in the same range of IC50: 1 to 10 µM for the first, 1 to 10 µM for the second.

First: CNc1nc(C2CCN(C(C)=O)CC2)c2cc(OC)c(OCCCN3CCCC3)cc2n1 [Compound 519]
Second: CNc1nc(C2CCN(C(C)C)CC2)c2cc(OC)c(OCCCN3CCCC3)cc2n1 [Compound 530]
The IC50 of the first is higher: over 10 µM for the first, 1 to 10 µM for the second. The second is the more potent here.

`CNc1nc(C2CCNCC2)c2cc(OC)c(OCCCN3CCCC3)cc2n1` [Compound 520] and `CNc1nc(C2CCOCC2)c2cc(OC)c(OCCCN3CCCC3)cc2n1` [Compound 521] fall in the same range of IC50: 1 to 10 µM for the first, 1 to 10 µM for the second.

First: CNc1nc(C2=CCOCC2)c2cc(OC)c(OCCCN3CCCC3)cc2n1 [Compound 522]
Second: CNc1cc(C2CCOCC2)c2cc(OC)c(OCCCN3CCCC3)cc2n1 [Compound 524, 6-methoxy-N-methyl-4-(oxan-4-yl)-7-[3-(pyrrolidin-1-yl)propoxy]quinolin-2-amine]
The IC50 of the first is higher: 1 to 10 µM for the first, under 0.1 µM for the second. The second is the more potent here.

`CNc1nc(C2CCN(C(C)C)CC2)c2cc(OC)c(OC[C@@H]3CCN(C4CC4)C3)cc2n1` [Compound 526] and `CNc1nc(C2CCN(C)CC2)c2cc(OC)c(OCCCN3CC4CC4C3)cc2n1` (stereo not shown) [Compound 532] fall in the same range of IC50: 0.1 to 1 µM for the first, 0.1 to 1 µM for the second.

First: COc1cc2c(C3CCN(C)CC3)nc(N3CCCC3)nc2cc1OCCCN1CCCC1 [Compound 527]
Second: COc1cc2c(C3CCN(C)CC3)nc(N3CCC(F)(F)CC3)nc2cc1OCCCN1CCCC1 [Compound 528]
The IC50 of the first is lower: 0.1 to 1 µM for the first, 1 to 10 µM for the second. The first is the more potent here.

`COc1cc2c(C3CCN(C)CC3)nc(NC3CCCC3)nc2cc1OCCCN1CCCC1` [Compound 529] and `CNc1nc(C2CCN(CCO)CC2)c2cc(OC)c(OCCCN3CCCC3)cc2n1` [Compound 533] fall in the same range of IC50: 0.1 to 1 µM for the first, 0.1 to 1 µM for the second.

Going from `CNc1nc(C2CC(C)(C)NC(C)(C)C2)c2cc(OC)c(OCCCN3CCCC3)cc2n1` [Compound 534] to `CNc1cc(C2CCN(C)CC2)c2cc(OC)c(OCCCN3CCCC3)cc2n1` [Compound 535], the IC50 falls from over 10 µM to under 0.1 µM. The second is the more potent here.

First: COc1cc2c(C3CCN(C)CC3)cc(C)nc2cc1OCCCN1CCCC1 [Compound 536]
Second: CCCCNc1nccc(NC)n1 [Compound 543, N^2-butyl-N^4-methylpyrimidine-2,4-diamine]
The IC50 of the first is lower: 0.1 to 1 µM for the first, over 10 µM for the second. The first is the more potent here.

Same assay, conditions: Table VII; read-out: EHMT2 ICW IC50

`CNc1cc(C)nc(Nc2ccc(OC)c(OC[C@@H](O)CN3CCCC3)c2)n1` [Compound 1044] and `CNc1cc(C)nc(Nc2ccc(OC)c(OC[C@H](O)CN3CCCC3)c2)n1` [Compound 1045] fall in the same range of IC50: 0.1 to 1 µM for the first, 0.1 to 1 µM for the second.

`CNc1ccnc(Nc2ccc(OC)c(OC[C@@H](O)CN3CCC3)c2)n1` [Compound 1046] and `CNc1cc(C)nc(Nc2ccc(OC)c(OC[C@H](O)CN(C)C)c2)n1` [Compound 1112] fall in the same range of IC50: 1 to 10 µM for the first, 1 to 10 µM for the second.

`CNc1cc(C2CCOCC2)c2cc(OC)c(OC[C@H](O)CN3CCC3)cc2n1` [Compound 1108] and `CNc1cc(C2CCOCC2)c2cc(OC)c(CNCCN3CCCC3)cc2n1` [Compound 1111] fall in the same range of IC50: 0.1 to 1 µM for the first, 0.1 to 1 µM for the second.

First: CNc1cc(C)nc(Nc2ccc(OC)c(CNCCNC3CCC3)c2)n1 [Compound 1109]
Second: CNc1cc(C)nc(Nc2cnc(OC)c(CNCCN3CCC3)c2)n1 [Compound 1110]
The IC50 of the first is higher: 1 to 10 µM for the first, 0.1 to 1 µM for the second. The second is the more potent here.

First: CCN(C)C[C@@H](O)COc1cc(Nc2nc(C)cc(NC)n2)ccc1OC [Compound 1113]
Second: CNc1cc(C)nc(Nc2ccc(C)c(C(=O)NCc3ccon3)c2)n1 [Compound 1114]
The IC50 of the first is lower: 1 to 10 µM for the first, over 10 µM for the second.
